# Assay results taken from patent US10981932B2, “Macrocyclic indole derivatives” (Bayer Aktiengesellschaft, priority 2016, dated 2021).
# Where two headings read alike, the source gives them in different places.
# What was measured:
# MCL-1 = MCL-1 (Homo sapiens, UniProt Q07820); assay: Protein-protein interaction assay MCL-1/Noxa BH3 peptide (MCL-1 assay), TR-FRET; format: binding; conditions: MBP-MCL-1 / Noxa BH3-derived peptide, median
# Procedure: Protein-Protein Interaction Assay: MCL-1/Noxa BH3 Peptide (MCL-1 Assay) […]
# In the assay 11 different concentrations of each compound (0.1 nM, 0.33 nM, 1.1 nM, 3.8 nM, 13 nM, 44 nM, 0.15 μM, 0.51 μM, 1.7 μM, 5.9 μM and 20 μM) were typically measured as duplicates in the same microtiter plate. For that, 100-fold concentrated DMSO solutions were prepared by serial dilutions (1:3.4) of a 2 mM stock solution in a clear, 384-well microtiter plate (Greiner Bio-One, Frickenhausen, Germany). From there, 50 ni were transferred in a dark test plate (Greiner Bio-One, Frickenhausen, Germany). The assay was initiated by addition of 2 μl of a 2.5-fold concentrated MBP-MCL-1 solution (usually for a 1 nM end concentration in 5 μl reaction volume) in aqueous assay buffer [50 mM Tris/HCl pH 7, 100 mM sodium chloride (NaCl), 50 mM potassium fluoride (KF), 0.005% Tween-20, 2 mM DTT, 0.1% bovine gamma globulin (BGG)] to the compounds in the assay plate. This was followed by a 10-minute incubation step at 22° C. for pre-equilibration of the putative complex between MBP-MCL-1 and the compounds. After that.
# The mixture was incubated in the dark for one hour at 22° C. and then overnight at 4° C. The formation of MCL-1/Noxa complexes was determined by measuring the resonance energy transfer of the anti-MBP- Eu-cryptate antibody to the streptavidin-XL665 present in the reaction. For that purpose, the fluorescence emission at 620 nm and 665 nm after excitation at 330-350 nm was measured in a TR-FRET measuring instrument, for instance a Rubystar or a Pherastar (both from BMG Lab Technologies, Offenburg, Germany) or a Viewlux (Perkin-Elmer). The ratio of the emission at 665 nm and at 622 nm was used as indicator of the amount of MCL-1/NOXA complexes present.
# The resulting data (ratio) were normalized, taking 0% inhibition as the mean value of control measurements (usually 32 data points) where all reagents were included. In this case 50 nl DMSO were used instead of compounds. A 100% inhibition corresponded to the mean value of control measurements (usually 32 data points) where all reagents except MCL-1 were included. IC50 values were determined by regression analysis based on a 4 parameter equation (minimum, maximum, IC50, Hill; Y=Max+(Min−Max)/(1+(X/IC50)^Hill) using the Screener Software (Genedata).
# SUDHL5 [1] = assay: Induction of caspase-3/7 activity (Caspase-Glo 3/7), SUDHL5; format: cell-based; conditions: caspase-3/7 induction, SUDHL5 cells, 3 h treatment, median
# Procedure: (§1) Induction of Caspase-317 Activity Upon Treatment of Cells with Selected Compounds
# (§2) The BH3-domain of MCL-1 sequesters pro-apoptotic proteins, thereby inhibiting apoptosis. In contrast, MCL-1 inhibitors are expected to antagonize this effect leading to an increase in apoptosis, which can be determined by measuring the activity of caspase-3/7.
# (§3) The activity of caspase-3/7 was determined in DLBCL (Diffuse large B-cell lymphoma) cell lines (SUDHL5 and SUDHL10) upon treatment with different compounds, using the Caspase-Glo® 3/7 reagent from Promega (G8092).
# (§4) Rim wells were excluded. The cells were incubated for 3 h hours in a humidified incubator at 37° C.
# (§5) For the evaluation of the results, the background measured with “medium-only” was subtracted from all other values. […] The Bella DRC Master Sheet was used to calculate EC50s, with fixed C0=1 and CI=plateaulmax induction for the reference compound.
# SUDHL10 [2] = assay: Induction of caspase-3/7 activity (Caspase-Glo 3/7), SUDHL10; format: cell-based; conditions: caspase-3/7 induction, SUDHL10 cells, 3 h treatment, median
# Procedure: as §1, §2, §3, §4, §5
# SUDHL5 [3] = assay: Anti-proliferative effect (CellTiter-Glo, 72 h), SUDHL5; format: cell-based; conditions: SUDHL5 cells, antiproliferation, 72 h incubation, median, read-out: Antiproli SUDHL5 [M] (median)
# Procedure: (§6) Assessment of the Anti-Proliferative Effect of Compounds in Different Cell Lines
# (§7) The impact of compounds on the proliferation of different cell lines was assessed using the CellTiter-Glo® Luminescent Cell Viability reagent from Promega (G7573). Of note, SUDHL10 and SUDHL5 (DLBCL), NCI-H929 (Multiple Myeloma), A2780 (ovarian carcinoma) as well as MV-4-11(AML) cells are sensitive to MCL-1 inhibition.
# (§8) In parallel, cells were plated in a reference (day 0) plate for time zero determination.
# (§9) Rim wells were excluded. The cells were incubated for 72 h hours in a humidified incubator at 37° C. The day 0 plate was measured by adding 30 μl/well of CTG solution (CellTiter-Glo® Luminescent Cell Viability reagent, Promega G7573) to time zero wells in the reference plate followed by a 10 minutes incubation and luminescence reading at 0.1 ms, using the PHERAstar FS microplate reader (BMG Labtech).
# (§10) After 72 h incubation, the treated plates were measured in the same way as the day 0 plate mentioned above.
# SUDHL5 [4] = assay: Induction of cytotoxicity (CellTiter-Glo, 5 h), SUDHL5
# SUDHL10 [5] = assay: Induction of cytotoxicity (CellTiter-Glo, 5 h), SUDHL10
# A2780 = assay: Anti-proliferative effect (CellTiter-Glo, 72 h), A2780; format: cell-based; conditions: A2780 cells, median, read-out: IC50 antiproliferation assay A2780 [M] (median)
# Procedure: as §6, §7, §8, §9, §10
# [6] = Homo sapiens, SU-DHL-5, 5 h, read-out: Cytotox SUDHL5 [M] (median), SUDHL5 cells, cytotoxicity induction, CellTiter-Glo, 5 h incubation, median
# [7] = Homo sapiens, SU-DHL10, 5 h, read-out: Cytotox SUDHL10 [M] (median), SUDHL10 cells, cytotoxicity induction, CellTiter-Glo, 5 h incubation, median
# [8] = read-out: Cytotox SUDHL5 [M] (median), SUDHL5 cells, cytotoxicity induction, CellTiter-Glo, 5 h incubation, median
# Sequence of MCL-1 (Q07820 whole entry): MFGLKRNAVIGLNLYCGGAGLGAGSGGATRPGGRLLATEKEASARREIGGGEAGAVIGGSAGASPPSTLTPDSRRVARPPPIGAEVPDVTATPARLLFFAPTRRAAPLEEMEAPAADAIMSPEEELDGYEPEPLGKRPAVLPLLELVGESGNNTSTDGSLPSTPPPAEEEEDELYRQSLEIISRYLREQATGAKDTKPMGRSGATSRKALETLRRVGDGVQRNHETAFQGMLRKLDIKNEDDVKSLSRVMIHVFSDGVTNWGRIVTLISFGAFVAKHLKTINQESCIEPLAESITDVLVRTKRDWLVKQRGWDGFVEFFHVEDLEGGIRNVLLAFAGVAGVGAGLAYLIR
IC50 (MCL-1) [µM],"EC50 (SUDHL5 [1]; Homo sapiens, SU-DHL-5, 3 h) [µM]","EC50 (SUDHL10 [2]; Homo sapiens, SU-DHL10, 3 h) [µM]","IC50 (SUDHL5 [3]; Homo sapiens, SU-DHL-5, 72 h) [M]","IC50 (A2780; Homo sapiens, A2780, 72 h) [M]",EC50 (SUDHL5 [1]) [µM],EC50 (SUDHL10 [2]) [µM],IC50 (A2780) [M],IC50 (SUDHL5 [3]) [M],SMILES,IC50 (SUDHL5 [4]; [6]) [M],IC50 (SUDHL10 [5]; [7]) [M],IC50 (SUDHL5 [4]; [8]) [M],"IC50 (SUDHL10 [5]; read-out: Cytotox SUDHL10 [M] (median), SUDHL10 cells, cytotoxicity induction, CellTiter-Glo, 5 h incubation, median)"
0.00293,6.16,10.7,5.41e-06,–,–,–,–,–,"Cn1nc(COc2ccc(C3(O)CCOCC3)cc2)c2c1COCCCCn1c(C(=O)O)c(CCCOc3cccc4ccccc34)c3cccc-2c31 (racemic) [Example 1-61, (rac)-3-{[4-(4-hydroxytetrahydro-2H-pyran-4-yl)phenoxy]methyl}-1-methyl-7-[3-(naphthalen-1-yloxy)propyl]-1,10,11,12,13,15-hexahydropyrazolo[4′,3′:9,10][1,6]oxazacycloundecino[8,7,6-hi]indole-8-carboxylic Acid]",1.33e-05,2.11e-05,–,–
0.031,16.3,17.5,3.71e-06,–,–,–,–,–,"COC1(c2ccc(OCc3nn(C)c4c3-c3cccc5c(CCCOc6cccc7ccccc67)c(C(=O)O)n(c35)CCCCOC4)cc2)CCOCC1 (racemic) [Example 1-65, (rac)-3-{[4-(4-methoxytetrahydro-2H-pyran-4-yl)phenoxy]methyl}-1-methyl-7-[3-(naphthalen-1-yloxy)propyl]-1,10,11,12,13,15-hexahydropyrazolo[4′,3′:9,10][1,6]oxazacycloundecino[8,7,6-hi]indole-8-carboxylic Acid]",> 3.3e-05,3.13e-05,–,–
0.0039,10.8,22.7,4.8e-06,–,–,–,–,–,"Cn1nc(CO)c2c1COCCCCn1c(C(=O)O)c(CCCOc3cccc4ccccc34)c3cccc-2c31 (racemic) [Example 1-95, (rac)-3-(hydroxymethyl)-1-methyl-7-[3-(naphthalen-1-yloxy)propyl]-1,10,11,12,13,15-hexahydropyrazolo[4′,3′:9,10][1,6]oxazacycloundecino[8,7,6-hi]indole-8-carboxylic Acid]",1.98e-05,> 3.3e-05,–,–
0.0202,23.5,31.8,6.92e-06,7.1e-06,–,–,–,–,"Cc1c2c(nn1CC(F)(F)F)COC/C=C\Cn1c(C(=O)O)c(CCCOc3cccc4ccccc34)c3cccc-2c31 (racemic) [Example 091, (rac)-(11Z)-3-methyl-7-[3-(naphthalen-1-yloxy)propyl]-2-(2,2,2-trifluoroethyl)-2,10,13,15-tetrahydropyrazolo[4′,3′:9,10][1,6]oxazacycloundecino[8,7,6-hi]indole-8-carboxylic Acid]",1.48e-05,1.89e-05,–,–
0.00682,8.26,> 33,1.32e-05,> 3.3e-05,–,–,–,–,"COCCn1nc(C2CC2)c2c1COCCCCn1c(C(=O)O)c(CCCOc3cccc4ccccc34)c3cccc-2c31 (racemic) [Example 102, (rac)-3-Cyclopropyl-1-(2-methoxyethyl)-7-[3-(naphthalen-1-yloxy)propyl]-1,10,11,12,13,15-hexahydropyrazolo[4′,3′:9,10][1,6]oxazacycloundecino[8,7,6-hi]indole-8-carboxylic Acid]",6.12e-06,> 3.3e-05,–,–
0.0111,> 33,> 33,1.56e-05,1.9e-05,–,–,–,–,"Cc1nn(CC(F)(F)F)c2c1-c1cccc3c(CCCOc4cccc5ccccc45)c(C(=O)O)n(c13)CCCCOC2 (racemic) [Example 109, (rac)-3-methyl-7-[3-(naphthalen-1-yloxy)propyl]-1-(2,2,2-trifluoroethyl)-1,10,11,12,13,15-hexahydropyrazolo[4′,3′:9,10][1,6]oxazacycloundecino[8,7,6-hi]indole-8-carboxylic acid]",> 3.3e-05,> 3.3e-05,–,–
0.00761,> 33,28,2.11e-05,> 3.3e-05,–,–,–,–,"Cn1nc(CCN2CCOCC2)c2c1COCCCCn1c(C(=O)O)c(CCCOc3cccc4ccccc34)c3cccc-2c31 (racemic) [Example 150, (rac)-1-methyl-3-[2-(morpholin-4-yl)ethyl]-7-[3-(naphthalen-1-yloxy)propyl]-1,10,11,12,13,15-hexahydropyrazolo[4′,3′:9,10][1,6]oxazacycloundecino[8,7,6-hi]indole-8-carboxylic Acid]",2.69e-05,> 3.3e-05,–,–
0.00524,–,20.7,9.08e-06,2.9e-05,14.9,> 33,> 3.3e-05,–,"Cn1nc(COC2CC2)c2c1COCCCCn1c(C(=O)O)c(CCCOc3cccc4ccccc34)c3cccc-2c31 (single isomer, unassigned) [Example 214, 3-[(cyclopropyloxy)methyl]-1-methyl-7-[3-(naphthalen-1-yloxy)propyl]-1,10,11,12,13,15-hexahydropyrazolo[4′,3′:9,10][1,6]oxazacycloundecino[8,7,6-hi]indole-8-carboxylic Acid]",–,–,1.14e-05,–
0.0527,–,–,–,–,17.2,20.6,–,5.87e-06,"CN(C)S(=O)(=O)N1CCN(c2ccc(OCc3nn(C)c4c3-c3cccc5c(CCCOc6cccc7ccccc67)c(C(=O)O)n(c35)CCCCOC4)cc2)CC1 (single isomer, unassigned; enantiomer 1) [Example 1-19, 3-({4-[4-(dimethylsulfamoyl)piperazin-1-yl]phenoxy}methyl)-1-methyl-7-[3-(naphthalen-1-yloxy)propyl]-1,10,11,12,13,15-hexahydropyrazolo[4′,3′:9,10][1,6]oxazacycloundecino[8,7,6-hi]indole-8-Carboxylic acid (Enantiomer 1)]",–,–,2.7e-05,2.52e-05
